According to US12195424B2, “Antibiotic compounds” (The General Hospital Corporation, priority 2017, dated 2025):
Values after ≈ are worked out from the molar mass of the structure shown. Where two headings read alike, the source gives them in different places. One block for each compound: values may come before it.

Assays:
[1] = in words; cited from earlier work
S. aureus strain MW2 = test: Minimal inhibitory concentration (MIC) assay; assay type: cell-based; settings: for MIC: growing MRSA MW2 cells; for fold decrease in antimicrobial activity (fold higher MIC) vs. parent compound CD437: relative to CD437; for antimicrobial activity: S. aureus MW2, in words
From the text: Bacterial strains, growth conditions and persister isolation. Methicillin-resistant S. aureus (MRSA) strain MW2 BAA-1707, the VanA-type vancomycin-resistant S. aureus strain VRS1, 11 clinical S. aureus isolates 8 clinical Enterococcus faecium isolates (including VanB-type VRE isolates, C68 and WB312, and a VanA-type VRE isolate WC196), Klebsiella pneumoniae WGLW2 (BEI Resources, Manassas, VA, USA), Acinetobacter baumannii ATCC 17978, Pseudomonas aeruginosa PA14, and Enterobacter aerogenes ATCC 13048 were used to test antimicrobial activity. S. aureus and E. faecium strains were grown in tryptic soy broth (TSB) (BD, Franklin Lakes, NJ, USA) or brain-heart infusion (BHI) broth (BD, Franklin Lakes, NJ, USA), respectively at 37° C. K. pneumoniae, A. baumannii, P aeruginosa, and E. aerogenes were grown in Luria Bertani (LB) broth (BD, Franklin Lakes, NJ, USA).
(§1) Minimal inhibitory concentration (MIC) assay. The MICs of antibiotics were determined by the standard micro-dilution method recommended by the Clinical and Laboratory Standards Institute. The assay was conducted in triplicate.

[2] = test system: Cutibacterium (Propionibacterium) acnes; test: Growth inhibition / MIC against P. acnes; assay type: cell-based; settings: in words (FIG. 11)
Description: as §1
More specifically, uptake of SYTOX Green by Cutibacterium (Propionibacterium) acnes cells treated with retinoids CD437 and Analog 2 increased, indicating higher permeability (FIG. 12; individual data points (n=3 biologically independent samples) and means are shown).

Maximum tolerated dose = assay type: in vivo; settings: mice, every 12 h for 3 days; Analog 2 10-80 mg/kg i.p., vancomycin 25 mg/kg i.p.; P>0.7
Description: Maximum tolerated dose. Six-week-old female CD1 ICR outbred mice (20-25 g) were obtained from Charles River Laboratories (Wilmington, MA, USA). Analog 2 was dissolved in a 1:1 solution of Kolliphor EL (Sigma-Aldrich, St Louis, MO, USA) and ethanol and then diluted 1:10 in saline to a final concentration of 4 mg/ml. Groups of mice (n=6) were treated with 10, 20, 40, 80 mg/kg Analog 2 i.p. or vancomycin (25 mg/kg) every 12 h for 3 days. Control mice were injected with 400 μl of 10% Kolliphor EL/ethanol in saline i.p. every 12 h for 3 days. Mice were closely monitored until they were euthanized at 72 h from the first infection. After euthanizing mice, blood was collected by cardiac puncture. All samples were stored at 4° C. until for analysis. Serum was analyzed for alanine aminotransferase and urea nitrogen content with commercially available kits, following the manufacturer's protocol (Pointe Scientific, Canton, MI, USA). No statistical methods were used to predetermine samples size. The experiments were not randomized, and investigators were not blinded to allocation during experiments and outcome assessment. This study and all experimental protocols were approved by the Rhode Island Hospital Institutional Animal Care and Use Committee (RIH IACUC) and conducted in accordance with the Animal Welfare Act and National Institutes of Health guidelines for animal care and use. Statistical significance among each group was analyzed by one-way ANOVA with post-hoc Tukey test using PASW Statistics 18 (SPSS Inc. Chicago, IL, USA) and GraphPad Prism 7 (GraphPad Software, La Jolla, CA, USA).

[3] = test system: Cutibacterium (Propionibacterium) acnes; test: Morphology of treated P. acnes bacteria; assay type: cell-based; settings: in words (FIG. 13)
MRSA MW2 persisters = test: Persister killing assay; assay type: cell-based, S. aureus; settings: Staphylococcus aureus; MRSA MW2 persisters; read-out: MIC against MRSA persisters
Description: Persister killing assay. […] Persistency of stationary-phase S. aureus VRS1 was evaluated by treating with 100×MIC daptomycin and 100×MIC linezolid, because the strain is resistant to vancomycin, gentamicin, ciprofloxacin, and rifampicin. We prepared persister cells of the 13 S. aureus strains by growing cultures overnight to stationary phase at 37° C. at 225 rpm. The overnight cultures were washed three times with PBS and diluted to ˜5×10^7 ? CFU/ml with the same buffer. 2 ml of the persister suspension containing appropriate concentrations of antibiotics was added to the wells of a 96-well assay block (Corning Costar 3960) and incubated at 37° C., with shaking at 225 rpm. At specific times, 400 μl samples were removed and washed once with PBS to remove the antibiotic. The samples were serially diluted 10^5 fold with PBS and spot-plated onto TSA plates. After incubating the plates overnight (˜18 h) at 37° C., the colonies were counted to enumerate the number of cells. These experiments were conducted in triplicate.

human erythrocytes = test: Human blood hemolysis; assay type: cell-based; settings: compared with CD437, in words
Description: Human blood hemolysis. Hemolytic activity of retinoids on human erythrocytes was evaluated using a previously described method with modifications. 10% human erythrocytes were purchased from Rockland Immunochemicals (Limerick, PA, USA). The erythrocytes were diluted to 4% with PBS, and 100 μl was added to 100 μl of two-fold serial dilutions of compounds in PBS, 0.2% DMSO (negative control), or 2% Triton-X 100 (positive control) in a 96-well plate. The plate was incubated at 37° C. for 1 h and then centrifuged at 500×g for 5 min. 100 μl of the supernatant was transferred to a fresh 96-well plate and absorbance of supernatants was measured at 540 nm. Percent hemolysis was calculated using the following equation: (A540 nm of compound treated sample−A540 nm of 0.1% DMSO treated sample)/(A540 nm of 1% Triton X-100 treated sample−A540 nm of 0.1% DMSO treated sample)×100. HC50 (concentration of compound causing 50% hemolysis) was determined using SigmaPlot 10.0 (Systat Software Inc., San Jose, CA, USA).

rat primary hepatocytes = test: Hepatotoxicity in primary hepatocytes; assay type: cell-based; settings: 24 h, compared with CD437, in words
Description: Cytotoxicity. Cryopreserved rat and human primary hepatocytes were purchased from the Cell Resource Core at Massachusetts General Hospital (Boston, MA, USA). The hepatocytes were cultured in a collagen sandwiched configuration in 24-well plates, as described previously. Briefly, 4×10^5 live cells were seeded in 24-well plates coated with rat tail collagen type I. Plates were incubated in a humidified 5% CO2 incubator at 37° C. for 4 h to allow cells to attach to the collagen gel. The cells were washed and then cultured in 0.5 ml standard hepatocyte culture medium consisting of pre-warmed Dulbecco's modified Eagle's medium (DMEM) media supplemented with 10% FBS, 0.5 U/ml insulin, 14 ng/ml glucagon, 20 ng/ml EGF, 7.5 μg/ml hydrocortisone and 200 U/ml penicillin-streptomycin. The cell cultures were incubated in a humidified 5% CO2 incubator at 37° C. At 24 h after seeding the cells, a top layer of collagen gel was deposited on the hepatocytes attached to the bottom collagen layer and incubated for additional 24 h. For cytotoxicity tests, HepG2, RPTEC, and NHEK were cultured at 70-80% confluence in tissue culture treated 96-well plates in a volume of 100 μl/well corresponding culture media. […] WST-1 reduction was measured at 450 nm. The percent fluorescence relative to that of the no-treatment control was calculated. […]

[4] = Staphylococcus aureus, read-out: MIC

SMILES: O=C(O)/C=C/c1ccc(-c2ccc(O)c(C34CC5CC(CC(C5)C3)C4)c2)cc1 [adarotene]
excretion [1]: excreted rapidly

MIC (S. aureus strain MW2; [4]): 4 µg/mL (≈ 9.65 µM)
SMILES: O=C(O)c1cc(O)c2cc(-c3cc(C45CC6CC(CC(C6)C4)C5)ccc3O)ccc2c1 [Analog 13, 6-(5-(adamantan-1-yl)-2-hydroxyphenyl)-4-hydroxy-2-naphthoic acid]
fold increase in antimicrobial activity vs. Analog 10 (S. aureus strain MW2; MRSA MW2, relative to Analog 10): 8 fold

fold decrease in antimicrobial activity (fold higher MIC) vs. parent compound CD437 (S. aureus strain MW2; MRSA MW2): 4 fold
MIC (S. aureus strain MW2; [4]): 4 µg/mL (≈ 9.65 µM)
SMILES: O=C(O)c1cc(O)c2cc(-c3ccc(O)c(C45CC6CC(CC(C6)C4)C5)c3)ccc2c1 [Analog 11, 6-(3-(adamantan-1-yl)-4-hydroxyphenyl)-4-hydroxy-2-naphthoic acid]

fold decrease in antimicrobial activity (fold higher MIC) vs. parent compound CD437 (S. aureus strain MW2; MRSA MW2): > 30 fold
MIC (S. aureus strain MW2; [4]): 32 µg/mL (≈ 80.3 µM)
SMILES: O=C(O)c1ccc2cc(-c3cc(C45CC6CC(CC(C6)C4)C5)ccc3O)ccc2c1 [Analog 10, 6-(5-(adamantan-1-yl)-2-hydroxyphenyl)-2-naphthoic acid]

SMILES: COc1ccc(-c2ccc3cc(CO)ccc3c2)cc1C12CC3CC(CC(C3)C1)C2 [Analog 6, (6-(3-(adamantan-1-yl)-4-methoxyphenyl)naphthalen-2-yl)methanol]
antimicrobial activity (S. aureus strain MW2): eliminated

MIC (S. aureus strain MW2; [4]): 16 µg/mL (≈ 37.2 µM)
SMILES: O=C(O)c1cc(O)c2cc(-c3ccc(O)c(C45CC6CC(CC(C6)C4)C5)c3)cc(O)c2c1 [Analog 14, 6-(3-(adamantan-1-yl)-4-hydroxyphenyl)-4,8-dihydroxy-2-naphthoic acid]
fold decrease in antimicrobial activity vs. Analog 11 (S. aureus strain MW2; MRSA MW2, another decrease relative to Analog 11): 4 fold

SMILES: COc1ccc(-c2ccc3cc(C(=O)O)ccc3c2)cc1C12CC3CC(CC(C3)C1)C2 [adapalene]
growth inhibition [2]: not

SMILES: NC(=O)c1ccc2cc(-c3ccc(O)c(C45CC6CC(CC(C6)C4)C5)c3)ccc2c1 [Analog 3, 6-(3-(adamantan-1-yl)-4-hydroxyphenyl)-2-naphthamide]
antimicrobial activity (S. aureus strain MW2): comparatively low

MIC (S. aureus strain MW2; [4]): 8 µg/mL (≈ 18.6 µM)
SMILES: O=C(O)c1cc(O)c2cc(-c3cc(C45CC6CC(CC(C6)C4)C5)ccc3O)cc(O)c2c1 [Analog 16, 6-(5-(adamantan-1-yl)-2-hydroxyphenyl)-4,8-dihydroxy-2-naphthoic acid]

SMILES: CN[C@H](CC(C)C)C(=O)N[C@H]1C(=O)N[C@@H](CC(N)=O)C(=O)N[C@H]2C(=O)N[C@H]3C(=O)N[C@H](C(=O)N[C@H](C(=O)O)c4cc(O)cc(O)c4-c4cc3ccc4O)[C@H](O)c3ccc(c(Cl)c3)Oc3cc2cc(c3O[C@@H]2O[C@H](CO)[C@@H](O)[C@H](O)[C@H]2O[C@H]2C[C@](C)(N)[C@H](O)[C@H](C)O2)Oc2ccc(cc2Cl)[C@H]1O [vancomycin, reference compound]
alanine aminotransferase (ALT) vs. control (Maximum tolerated dose): lack of significant differences
blood urea nitrogen (BUN) vs. control (Maximum tolerated dose): lack of significant differences

MIC (S. aureus strain MW2): 1 µg/mL (≈ 2.51 µM)
SMILES: O=C(O)c1ccc2cc(-c3ccc(O)c(C45CC6CC(CC(C6)C4)C5)c3)ccc2c1 [CD437, reference compound]
growth inhibition [2]: inhibit the growth
morphology of bacteria [3]: altered and elongated

fold decrease in antimicrobial activity (fold higher MIC) vs. parent compound CD437 (S. aureus strain MW2; MRSA MW2): 2 fold
MIC (S. aureus strain MW2; [4]): 2 µg/mL (≈ 5.64 µM)
SMILES: O=C(O)c1ccc2cc(-c3ccc(O)c(Cc4ccccc4)c3)ccc2c1 [Analog 9, 6-(3-benzyl-4-hydroxyphenyl)-2-naphthoic acid]
MIC (MRSA MW2 persisters): 16 µg/mL (≈ 45.1 µM)
hemolytic activity (human erythrocytes): similar
hepatotoxicity (rat primary hepatocytes): similar
